Results from paper PMC11249637, “Interaction of the Atypical Tetracyclines Chelocardin and Amidochelocardin with Renal Drug Transporters” (ACS Pharmacology & Translational Science, 2024).

Experiments:
hOAT4 = molecular target: T1, hOAT4 (Homo sapiens, UniProt Q9NSA0); experiment: Two-point inhibition of hOAT4-mediated ES uptake in transfected HEK293 cells; format: in vitro ADME; conditions: ES 1 μM, 1 min; for inhibitory effect on hOAT4 (in words): 1 and 10 μM; for enhanced uptake of substrate by hOAT4: at 10 μM
T1 construct: expressed in transfected cells; host or cells: HEK293
T1 sequence (Q9NSA0 1-550): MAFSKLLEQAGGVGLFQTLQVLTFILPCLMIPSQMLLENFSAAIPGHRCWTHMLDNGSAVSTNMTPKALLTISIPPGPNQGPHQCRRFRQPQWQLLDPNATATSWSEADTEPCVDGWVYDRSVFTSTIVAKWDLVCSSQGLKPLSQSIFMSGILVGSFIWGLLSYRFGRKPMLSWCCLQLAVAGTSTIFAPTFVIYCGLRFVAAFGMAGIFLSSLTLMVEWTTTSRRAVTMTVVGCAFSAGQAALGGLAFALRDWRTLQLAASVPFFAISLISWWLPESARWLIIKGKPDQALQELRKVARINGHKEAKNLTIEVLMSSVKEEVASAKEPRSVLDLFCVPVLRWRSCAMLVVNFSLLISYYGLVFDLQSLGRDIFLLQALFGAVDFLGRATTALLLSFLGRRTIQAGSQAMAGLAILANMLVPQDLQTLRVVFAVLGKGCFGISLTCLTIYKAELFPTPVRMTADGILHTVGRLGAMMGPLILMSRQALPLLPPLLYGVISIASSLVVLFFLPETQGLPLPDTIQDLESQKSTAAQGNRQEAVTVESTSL
Procedure: (§1) Well-characterized mOct1-, mOct2-, mOat1-, mOat2-, mOat3-, mMate1-, hOAT1-, hOAT3-, hOAT4-, hMRP2-, mMdr1a- and mMdr1b-transfected HEK293 cells and the respective vector-transfected control HEK293 cells were used.[42],[51],[52] All HEK293 cells (transporter-transfected and vector-transfected) were cultured in DMEM (Sigma, high glucose, 10% FBS, 1% penicillin (10,000 Units/mL)/streptomycin (10 mg/mL)) at 37°C under 5% CO2 in humidified atmosphere. The cells were routinely checked for the absence of mycoplasma infection. For the preparation of HEK293 cell monolayers, 24-well plates were pretreated with a poly-D-lysine hydrobromide solution (0.1 mg/mL). Each well was coated with 0.5 mL of poly-D-lysine solution and incubated for at least 15 min. After complete removal of the solution, the plates were dried for 30 min. Cells (vector-transfected and transporter-transfected) treated with trypsin were immediately seeded into 24-well plates and cultured for 3 days before being used for transport experiments.
For the uptake assay, the growth medium was aspirated, and each well was rinsed three times with 0.5 mL of incubation buffer (HBSS supplemented with 20 mM HEPES, pH 7.4) and incubated for 20 min at 37 °C. Afterward, buffers were removed, and 200 μL of the incubation buffer containing a radiolabeled substrate and the nonlabeled CHD and CDCHD or reference inhibitor (Table S1), respectively, was added to each well and incubated at 37 °C for designated time intervals. After incubation, uptake was terminated by aspirating the reaction mixture and washing the cells three times with 0.4 mL of ice-cold incubation buffer. Cells were solubilized with 0.6 mL of 1N NaOH overnight and transferred into scintillation vials. ^3H and ^14C contents were measured after the addition of 2.5 mL of scintillator in a liquid scintillation counter.
The cellular protein amount was determined in parallel for each cell line (vector- and transporter-transfected) from six wells in a different 24-well reference plate using the Bradford method. For the two-point inhibition assays, each, CHD and CDCHD, was added in two single concentrations of 1 and 10 μM to characterize their inhibitory potential. Incubation was terminated after 1 min. All experiments were conducted in triplicate for every transporter.
The ES incubation buffer contained ^3H-ES and nonlabeled ES in a final concentration of 1 μM. Inhibition of hOAT4-mediated ES uptake by 10 μM BSP was performed as a control experiment.
(§2) The inhibitory effect (I(%)) was calculated according to the formula: [drawing 5] […]

uropathogenic E. coli = system: uropathogenic E. coli; set-up: method as in PMID 38047701; conditions: cited from earlier work
mMate1 = molecular target: T2, mMate1 (Mus musculus, UniProt Q8K0H1); experiment: Two-point inhibition of mMate1-mediated metformin uptake in transfected HEK293 cells; format: in vitro ADME; conditions: 1 and 10 μM; metformin 20 μM, 1 min
T2 construct: expressed in transfected cells; host or cells: HEK293
T2 sequence (Q8K0H1 1-567): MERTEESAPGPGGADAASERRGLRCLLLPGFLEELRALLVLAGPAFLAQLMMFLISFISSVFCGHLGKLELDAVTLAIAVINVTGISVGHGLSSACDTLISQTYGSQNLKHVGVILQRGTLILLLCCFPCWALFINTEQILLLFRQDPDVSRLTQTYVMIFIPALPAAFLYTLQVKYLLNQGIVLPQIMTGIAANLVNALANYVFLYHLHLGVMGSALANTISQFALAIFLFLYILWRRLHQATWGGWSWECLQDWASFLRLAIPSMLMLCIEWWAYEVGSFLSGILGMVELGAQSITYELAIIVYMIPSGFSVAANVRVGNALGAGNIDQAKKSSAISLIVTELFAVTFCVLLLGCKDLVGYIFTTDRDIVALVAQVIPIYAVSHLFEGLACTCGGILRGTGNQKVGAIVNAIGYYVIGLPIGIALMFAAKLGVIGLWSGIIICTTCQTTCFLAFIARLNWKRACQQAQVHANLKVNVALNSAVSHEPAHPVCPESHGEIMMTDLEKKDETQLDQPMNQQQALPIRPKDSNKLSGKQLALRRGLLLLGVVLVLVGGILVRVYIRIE
Procedure: as §1, with “Each well was coated with 0.5 mL of poly-D-lysine solution and incubated for at least 15 min. After complete removal of the solution, the plates were dried for 30 min. Cells (vector-transfected and transporter-transfected) treated with trypsin were immediately seeded into 24-well plates and cultured for 3 days before being used for transport experiments.” left out
For the uptake assay, the growth medium was aspirated, and each well was rinsed three times with 0.5 mL of incubation buffer (HBSS supplemented with 20 mM HEPES, pH 7.4) and incubated for 20 min at 37 °C. […] Cells were solubilized with 0.6 mL of 1N NaOH overnight and transferred into scintillation vials. ^3H and ^14C contents were measured after the addition of 2.5 mL of scintillator in a liquid scintillation counter.
The cellular protein amount was determined in parallel for each cell line (vector- and transporter-transfected) from six wells in a different 24-well reference plate using the Bradford method. […]
as §2

SMILES | inhibitory effect on hOAT4 (in words) (hOAT4) | enhanced uptake of substrate by hOAT4 (hOAT4) | effect in ascending urinary tract infection model (in words) (uropathogenic E. coli) | inhibitory effect on mMate1 (in words) (mMate1)
Cc1ccc2c(C)c3c(c(O)c2c1O)C(=O)[C@@]1(O)C(=O)C(C(N)=O)=C(O)[C@@H](N)[C@H]1C3 [CDCHD, amidochelocardin] | No inhibitory effect | up to 40% | pronounced effects | did not have major effects
CC(=O)C1=C(O)[C@@H](N)[C@H]2Cc3c(c(O)c4c(O)c(C)ccc4c3C)C(=O)[C@@]2(O)C1=O [CHD, chelocardin] | No inhibitory effect | up to 40% | pronounced effects | weak inhibitory effect
